Test system: 435261-313-R-J1-PDC tumor spheroid viability
Assay: Anticancer human tumor 435261-313-R-J1-PDC patient-derived colon adenocarcinoma cell line growth inhibition [PI3K]
Conditions: spheroids with HUVEC and MSC; for IC50: curve of first compound; for viability, T/C: stronger effect = lower value
Procedure, shortened: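 Agents were dosed from a top concentration near clinical Cmax (otherwise 10 microM) in half-log decrements, alone or combined with PI3K inhibitors. The spheroids contain tumor cells plus endothelial (HUVEC) and MSC stroma; viability is measured.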
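Note: spheroids exposed to compounds for 7 days.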

With `Cn1ncnc1[C@H]1c2n[nH]c(=O)c3cc(F)cc(c23)N[C@@H]1c1ccc(F)cc1` + COc1c(OCCCN2CCOCC2)ccc2c3n(c(=NC(=O)c4cnc(N)nc4)nc12)CCN3 the IC50 (second compound 0.00316 µM) was 47.7 nM, the IC50 (second compound 0.01 µM) was 0.895 nM and the IC50 (second compound 0.0316 µM) was < 0.316 nM. The IC50 (second compound 0.1 µM) was < 0.316 nM, the IC50 (second compound 0.316 µM) was < 0.316 nM and the IC50 (second compound 1 µM) was < 0.316 nM. For the same compound, the viability, T/C (second compound 0.00316 µM, first compound 0.000316 µM) was 87%, the viability, T/C (second compound 0.00316 µM, first compound 0.001 µM) was 41.6% and the viability, T/C (second compound 0.00316 µM, first compound 0.00316 µM) was 76%. For the same compound, the viability, T/C (second compound 0.00316 µM, first compound 0.01 µM) was 66.4%, the viability, T/C (second compound 0.00316 µM, first compound 0.0316 µM) was 55% and the viability, T/C (second compound 0.00316 µM, first compound 0.1 µM) was 39%. For the same compound, the viability, T/C (second compound 0.01 µM, first compound 0.000316 µM) was 62.5%, the viability, T/C (second compound 0.01 µM, first compound 0.001 µM) was 51% and the viability, T/C (second compound 0.01 µM, first compound 0.00316 µM) was 36.7%. It also gave a viability, T/C (second compound 0.01 µM, first compound 0.01 µM) of 52.7%, a viability, T/C (second compound 0.01 µM, first compound 0.0316 µM) of 58.7% and a viability, T/C (second compound 0.01 µM, first compound 0.1 µM) of 35%. It also gave a viability, T/C (second compound 0.0316 µM, first compound 0.000316 µM) of 24.6%, a viability, T/C (second compound 0.0316 µM, first compound 0.001 µM) of 23% and a viability, T/C (second compound 0.0316 µM, first compound 0.00316 µM) of 27.1%. For the same compound, the viability, T/C (second compound 0.0316 µM, first compound 0.01 µM) was 21.2%, the viability, T/C (second compound 0.0316 µM, first compound 0.0316 µM) was 21.9% and the viability, T/C (second compound 0.0316 µM, first compound 0.1 µM) was 22.5%. It also gave a viability, T/C (second compound 0.1 µM, first compound 0.000316 µM) of 17.3%, a viability, T/C (second compound 0.1 µM, first compound 0.001 µM) of 16.6% and a viability, T/C (second compound 0.1 µM, first compound 0.00316 µM) of 20.1%. It also gave a viability, T/C (second compound 0.1 µM, first compound 0.01 µM) of 15.8%, a viability, T/C (second compound 0.1 µM, first compound 0.0316 µM) of 16.8% and a viability, T/C (second compound 0.1 µM, first compound 0.1 µM) of 14.4%. The viability, T/C (second compound 0.316 µM, first compound 0.000316 µM) was 8.3%, the viability, T/C (second compound 0.316 µM, first compound 0.001 µM) was 7.7% and the viability, T/C (second compound 0.316 µM, first compound 0.00316 µM) was 6.69%. For the same compound, the viability, T/C (second compound 0.316 µM, first compound 0.01 µM) was 7.31%, the viability, T/C (second compound 0.316 µM, first compound 0.0316 µM) was 8.06% and the viability, T/C (second compound 0.316 µM, first compound 0.1 µM) was 7.38%. The viability, T/C (second compound 1 µM, first compound 0.000316 µM) was 3.97%, the viability, T/C (second compound 1 µM, first compound 0.001 µM) was 3.84% and the viability, T/C (second compound 1 µM, first compound 0.00316 µM) was 3.78%. For the same compound, the viability, T/C (second compound 1 µM, first compound 0.01 µM) was 3.5%, the viability, T/C (second compound 1 µM, first compound 0.0316 µM) was 4.54% and the viability, T/C (second compound 1 µM, first compound 0.1 µM) was 2.9%.
